Experimental data from US11767310B2, “Nicotinamide RIPK1 inhibitors” (AbbVie Inc., priority 2021, dated 2023).
Read-outs that look alike come from different tables or passages of the source.

What was measured:
Test in all cases: Kinase binding screen
Conditions in all cases: read-out: Percent Control at 100 nM Compound Concentration
[1] = target: ABL1(T315I)-nonphosphorylated (Homo sapiens (Human), UniProt P00519, T315I)
ACVR2A = ACVR2A (Homo sapiens (Human), UniProt P27037)
CDC2L1 = CDC2L1 (Homo sapiens (Human), UniProt P21127)
CSF1R-autoinhibited = CSF1R-autoinhibited (Homo sapiens (Human), UniProt P07333)
CSNK2A1 = CSNK2A1 (Homo sapiens (Human), UniProt P68400)
DAPK3 = DAPK3 (Homo sapiens (Human), UniProt O43293)
DCAMKL1 = DCAMKL1 (Homo sapiens (Human), UniProt O15075)
EGFR(T790M) = EGFR(T790M) (Homo sapiens (Human), UniProt P00533, T790M)
EPHB2 = EPHB2 (Homo sapiens (Human), UniProt P29323)
[2] = target: JAK1(JH1domain-catalytic) (Homo sapiens (Human), UniProt P23458)
[3] = target: JAK3(JH1domain-catalytic) (Homo sapiens (Human), UniProt P52333)
KIT(A829P) = KIT(A829P) (Homo sapiens (Human), UniProt P10721, A829P)
MARK3 = MARK3 (Homo sapiens (Human), UniProt P27448)
MY03B = MY03B (Homo sapiens (Human), UniProt Q8WXR4)
PIK4CB = PIK4CB (Homo sapiens (Human), UniProt Q9UBF8)
PIM2 = PIM2 (Homo sapiens (Human), UniProt Q9P1W9)
PLK2 = PLK2 (Homo sapiens (Human), UniProt Q9NYY3)
PRKCE = PRKCE (Homo sapiens (Human), UniProt Q02156)
PRKG2 = PRKG2 (Homo sapiens (Human), UniProt Q13237)
RIPK1 = RIPK1 (Homo sapiens (Human), UniProt Q13546)
RIPK4 = RIPK4 (Homo sapiens (Human), UniProt P57078)
[4] = target: RSK3(Kin.Dom.1-N-terminal) (Homo sapiens (Human), UniProt Q15349)
[5] = target: RSK4(Kin.Dom.2-C-terminal) (Homo sapiens (Human), UniProt Q9UK32)
SYK = SYK (Homo sapiens (Human), UniProt P43405)
TIE1 = TIE1 (Homo sapiens (Human), UniProt P35590)
TRPM6 = TRPM6 (Homo sapiens (Human), UniProt Q9BX84)
VPS34 = VPS34 (Homo sapiens (Human), UniProt Q8NEB9)
VRK2 = VRK2 (Homo sapiens (Human), UniProt Q86Y07)

RIPK4, sequence (P57078 whole entry): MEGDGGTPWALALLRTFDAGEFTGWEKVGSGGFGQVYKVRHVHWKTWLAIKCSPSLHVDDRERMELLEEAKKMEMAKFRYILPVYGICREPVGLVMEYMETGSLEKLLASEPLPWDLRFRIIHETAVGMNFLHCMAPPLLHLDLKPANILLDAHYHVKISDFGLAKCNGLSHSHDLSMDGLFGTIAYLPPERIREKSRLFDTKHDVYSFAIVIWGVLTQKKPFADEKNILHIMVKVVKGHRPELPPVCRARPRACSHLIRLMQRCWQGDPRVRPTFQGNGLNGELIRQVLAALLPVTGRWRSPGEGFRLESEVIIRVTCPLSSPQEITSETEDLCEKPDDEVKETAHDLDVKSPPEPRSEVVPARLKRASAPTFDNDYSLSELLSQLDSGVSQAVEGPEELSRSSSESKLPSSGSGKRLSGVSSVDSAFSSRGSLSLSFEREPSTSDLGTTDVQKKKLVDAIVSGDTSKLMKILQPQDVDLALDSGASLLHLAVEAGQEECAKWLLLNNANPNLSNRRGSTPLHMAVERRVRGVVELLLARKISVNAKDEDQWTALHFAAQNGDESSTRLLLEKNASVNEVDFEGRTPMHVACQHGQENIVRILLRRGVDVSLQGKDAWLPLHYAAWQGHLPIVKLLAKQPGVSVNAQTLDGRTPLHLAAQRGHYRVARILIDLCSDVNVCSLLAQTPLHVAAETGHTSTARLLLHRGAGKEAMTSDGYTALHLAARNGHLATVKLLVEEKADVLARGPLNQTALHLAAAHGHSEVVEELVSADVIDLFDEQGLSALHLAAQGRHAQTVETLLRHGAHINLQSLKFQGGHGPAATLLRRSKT
PIM2, sequence (Q9P1W9 whole entry): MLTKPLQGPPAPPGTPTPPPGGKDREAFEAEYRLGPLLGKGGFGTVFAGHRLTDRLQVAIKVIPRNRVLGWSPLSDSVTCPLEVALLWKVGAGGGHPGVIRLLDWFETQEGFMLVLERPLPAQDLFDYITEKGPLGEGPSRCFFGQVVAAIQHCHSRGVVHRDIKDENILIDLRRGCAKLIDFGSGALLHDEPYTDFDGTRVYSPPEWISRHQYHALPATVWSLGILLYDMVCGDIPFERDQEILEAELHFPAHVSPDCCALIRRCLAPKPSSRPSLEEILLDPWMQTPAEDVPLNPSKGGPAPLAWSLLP
MARK3, sequence (P27448 whole entry): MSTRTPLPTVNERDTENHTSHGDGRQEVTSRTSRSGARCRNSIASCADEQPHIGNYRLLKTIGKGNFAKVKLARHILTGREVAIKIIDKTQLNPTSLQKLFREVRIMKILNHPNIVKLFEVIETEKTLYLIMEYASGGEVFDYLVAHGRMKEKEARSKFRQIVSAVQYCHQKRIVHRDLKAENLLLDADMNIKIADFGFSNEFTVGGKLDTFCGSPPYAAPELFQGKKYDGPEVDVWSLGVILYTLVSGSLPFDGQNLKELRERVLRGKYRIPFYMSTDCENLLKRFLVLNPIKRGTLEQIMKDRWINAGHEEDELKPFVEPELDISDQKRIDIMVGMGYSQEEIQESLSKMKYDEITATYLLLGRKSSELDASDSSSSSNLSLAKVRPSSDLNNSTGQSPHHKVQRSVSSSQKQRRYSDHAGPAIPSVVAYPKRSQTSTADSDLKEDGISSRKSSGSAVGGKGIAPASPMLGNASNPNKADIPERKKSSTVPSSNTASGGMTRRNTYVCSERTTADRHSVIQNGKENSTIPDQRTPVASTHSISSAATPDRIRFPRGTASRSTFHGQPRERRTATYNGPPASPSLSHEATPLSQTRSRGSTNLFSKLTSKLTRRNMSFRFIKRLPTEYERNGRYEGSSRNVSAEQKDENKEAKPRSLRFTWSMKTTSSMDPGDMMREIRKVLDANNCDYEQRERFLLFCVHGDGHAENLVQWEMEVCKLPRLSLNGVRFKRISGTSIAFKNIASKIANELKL
RSK4(Kin.Dom.2-C-terminal), sequence (Q9UK32 426-683): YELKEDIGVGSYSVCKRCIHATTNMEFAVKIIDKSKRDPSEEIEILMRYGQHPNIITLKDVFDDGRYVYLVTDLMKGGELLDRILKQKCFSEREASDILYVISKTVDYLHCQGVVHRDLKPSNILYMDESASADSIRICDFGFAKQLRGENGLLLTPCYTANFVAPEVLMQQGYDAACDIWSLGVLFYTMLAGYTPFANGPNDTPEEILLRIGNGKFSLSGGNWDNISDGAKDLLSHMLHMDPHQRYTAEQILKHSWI
CSF1R-autoinhibited, sequence (P07333 539-972 limits assumed): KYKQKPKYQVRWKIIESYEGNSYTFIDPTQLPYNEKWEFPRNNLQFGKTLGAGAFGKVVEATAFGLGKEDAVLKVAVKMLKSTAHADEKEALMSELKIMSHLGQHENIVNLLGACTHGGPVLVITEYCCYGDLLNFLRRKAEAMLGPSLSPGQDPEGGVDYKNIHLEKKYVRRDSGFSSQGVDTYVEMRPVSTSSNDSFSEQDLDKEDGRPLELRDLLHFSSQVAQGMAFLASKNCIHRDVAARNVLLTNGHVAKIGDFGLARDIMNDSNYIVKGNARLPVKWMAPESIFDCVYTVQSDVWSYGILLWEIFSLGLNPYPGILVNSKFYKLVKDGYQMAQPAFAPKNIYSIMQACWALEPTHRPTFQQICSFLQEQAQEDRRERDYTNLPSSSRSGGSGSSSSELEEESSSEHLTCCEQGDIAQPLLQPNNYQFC
TIE1, sequence (P35590 22-1138): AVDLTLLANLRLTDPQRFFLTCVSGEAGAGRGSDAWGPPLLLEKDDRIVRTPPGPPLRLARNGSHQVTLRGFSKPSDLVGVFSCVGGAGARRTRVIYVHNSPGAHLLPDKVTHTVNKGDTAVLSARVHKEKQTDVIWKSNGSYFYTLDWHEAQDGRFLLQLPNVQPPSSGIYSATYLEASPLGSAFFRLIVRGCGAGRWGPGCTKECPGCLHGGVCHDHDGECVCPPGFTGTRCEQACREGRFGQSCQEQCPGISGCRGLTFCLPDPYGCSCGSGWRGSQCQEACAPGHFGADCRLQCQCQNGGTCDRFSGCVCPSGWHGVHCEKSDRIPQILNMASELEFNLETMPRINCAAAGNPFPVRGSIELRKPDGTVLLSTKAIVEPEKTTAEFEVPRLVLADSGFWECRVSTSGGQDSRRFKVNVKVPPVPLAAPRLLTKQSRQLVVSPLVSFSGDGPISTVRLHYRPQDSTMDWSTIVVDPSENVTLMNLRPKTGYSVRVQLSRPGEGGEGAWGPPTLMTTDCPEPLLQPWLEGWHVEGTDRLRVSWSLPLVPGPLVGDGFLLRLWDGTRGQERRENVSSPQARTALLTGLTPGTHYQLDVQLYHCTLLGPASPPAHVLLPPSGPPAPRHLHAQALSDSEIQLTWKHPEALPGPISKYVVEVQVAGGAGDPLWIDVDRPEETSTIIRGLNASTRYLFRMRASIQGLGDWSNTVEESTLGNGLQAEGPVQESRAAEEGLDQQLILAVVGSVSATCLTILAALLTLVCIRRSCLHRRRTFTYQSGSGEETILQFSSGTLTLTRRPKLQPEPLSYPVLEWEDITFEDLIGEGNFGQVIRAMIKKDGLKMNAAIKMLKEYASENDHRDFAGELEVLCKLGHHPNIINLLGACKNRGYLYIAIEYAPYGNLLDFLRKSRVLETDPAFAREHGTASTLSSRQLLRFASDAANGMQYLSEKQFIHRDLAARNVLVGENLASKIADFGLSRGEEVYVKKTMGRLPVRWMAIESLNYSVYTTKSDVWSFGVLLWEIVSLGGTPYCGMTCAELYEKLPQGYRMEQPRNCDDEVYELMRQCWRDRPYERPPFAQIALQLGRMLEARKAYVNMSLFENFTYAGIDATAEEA
PIK4CB, sequence (Q9UBF8 whole entry): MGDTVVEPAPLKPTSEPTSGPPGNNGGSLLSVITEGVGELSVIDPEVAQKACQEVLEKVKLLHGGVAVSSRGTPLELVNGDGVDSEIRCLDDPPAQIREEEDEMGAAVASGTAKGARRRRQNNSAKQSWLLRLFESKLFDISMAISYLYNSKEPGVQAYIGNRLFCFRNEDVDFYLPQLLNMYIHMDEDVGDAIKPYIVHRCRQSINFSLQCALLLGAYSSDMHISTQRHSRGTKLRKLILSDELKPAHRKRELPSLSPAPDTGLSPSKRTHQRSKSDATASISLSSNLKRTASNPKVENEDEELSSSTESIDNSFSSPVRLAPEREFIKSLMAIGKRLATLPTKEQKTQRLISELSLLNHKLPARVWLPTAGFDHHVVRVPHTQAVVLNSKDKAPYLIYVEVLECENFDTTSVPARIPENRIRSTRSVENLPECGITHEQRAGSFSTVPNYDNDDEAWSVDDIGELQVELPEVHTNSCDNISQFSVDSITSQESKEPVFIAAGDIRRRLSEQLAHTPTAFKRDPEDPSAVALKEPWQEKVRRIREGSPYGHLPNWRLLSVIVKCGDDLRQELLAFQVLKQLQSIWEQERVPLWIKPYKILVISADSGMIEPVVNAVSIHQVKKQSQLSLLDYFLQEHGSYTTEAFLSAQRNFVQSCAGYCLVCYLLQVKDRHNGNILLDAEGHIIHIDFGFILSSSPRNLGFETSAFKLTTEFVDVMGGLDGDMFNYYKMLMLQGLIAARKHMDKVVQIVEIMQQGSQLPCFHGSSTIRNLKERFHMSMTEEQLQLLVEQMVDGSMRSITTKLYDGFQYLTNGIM
ACVR2A, sequence (P27037 20-513): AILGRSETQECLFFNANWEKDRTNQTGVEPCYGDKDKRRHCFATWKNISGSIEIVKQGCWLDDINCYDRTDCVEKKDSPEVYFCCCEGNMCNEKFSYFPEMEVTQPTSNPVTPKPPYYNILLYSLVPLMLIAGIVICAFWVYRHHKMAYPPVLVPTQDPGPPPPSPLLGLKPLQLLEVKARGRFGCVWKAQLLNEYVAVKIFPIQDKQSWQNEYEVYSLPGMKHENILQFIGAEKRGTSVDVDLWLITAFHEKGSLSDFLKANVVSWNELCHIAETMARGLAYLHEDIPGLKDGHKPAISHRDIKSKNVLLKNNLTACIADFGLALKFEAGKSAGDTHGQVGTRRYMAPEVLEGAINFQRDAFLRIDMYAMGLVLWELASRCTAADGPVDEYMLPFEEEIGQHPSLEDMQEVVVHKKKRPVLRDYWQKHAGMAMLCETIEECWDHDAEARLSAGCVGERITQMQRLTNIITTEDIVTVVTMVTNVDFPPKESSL

SMILES: CN(C[C@H](Cc1ccccc1)OP(=O)(O)O)C(=O)c1cncc(C#Cc2cnn(C(F)F)c2)c1 [Example 19, (S)-1-(5-((1-(difluoromethyl)-1H-pyrazol-4-yl)ethynyl)-N-methylnicotinamido)-3-phenylpropan-2-yl dihydrogen phosphate]
- remaining activity at 0.1 µM [1]: 97%
- remaining activity at 0.1 µM (ACVR2A): 100%
- remaining activity at 0.1 µM (CDC2L1): 100%
- remaining activity at 0.1 µM (CSF1R-autoinhibited): 99%
- remaining activity at 0.1 µM (CSNK2A1): 98%
- remaining activity at 0.1 µM (DAPK3): 97%
- remaining activity at 0.1 µM (DCAMKL1): 100%
- remaining activity at 0.1 µM (EGFR(T790M)): 100%
- remaining activity at 0.1 µM (EPHB2): 100%
- remaining activity at 0.1 µM [2]: 100%
- remaining activity at 0.1 µM [3]: 100%
- remaining activity at 0.1 µM (KIT(A829P)): 99%
- remaining activity at 0.1 µM (MARK3): 97%
- remaining activity at 0.1 µM (MY03B): 79%
- remaining activity at 0.1 µM (PIK4CB): 98%
- remaining activity at 0.1 µM (PIM2): 100%
- remaining activity at 0.1 µM (PLK2): 91%
- remaining activity at 0.1 µM (PRKCE): 68%
- remaining activity at 0.1 µM (PRKG2): 97%
- remaining activity at 0.1 µM (RIPK1): 91%
- remaining activity at 0.1 µM (RIPK4): 100%
- remaining activity at 0.1 µM [4]: 100%
- remaining activity at 0.1 µM [5]: 100%
- remaining activity at 0.1 µM (SYK): 93%
- remaining activity at 0.1 µM (TIE1): 100%
- remaining activity at 0.1 µM (TRPM6): 95%
- remaining activity at 0.1 µM (VPS34): 90%
- remaining activity at 0.1 µM (VRK2): 95%

SMILES: CN(C[C@@H](O)Cc1ccccc1)C(=O)c1cncc(C#Cc2cnn(C(F)F)c2)c1 [Example 2, (S)-5-((1-(difluoromethyl)-1H-pyrazol-4-yl)ethynyl)-N-(2-hydroxy-3-phenylpropyl)-N-methylnicotinamide]
- remaining activity at 0.1 µM ([1]; ABL1(T315I)-nonphosphorylated): 100%
- remaining activity at 0.1 µM (ACVR2A; ACVR2A): 94%
- remaining activity at 0.1 µM (CDC2L1; CDC2L1): 100%
- remaining activity at 0.1 µM (CSF1R-autoinhibited; CSF1R-autoinhibited): 99%
- remaining activity at 0.1 µM (CSNK2A1; CSNK2A1): 98%
- remaining activity at 0.1 µM (DAPK3; DAPK3): 100%
- remaining activity at 0.1 µM (DCAMKL1; DCAMKL1): 100%
- remaining activity at 0.1 µM (EGFR(T790M); EGFR(T790M)): 100%
- remaining activity at 0.1 µM (EPHB2; EPHB2): 100%
- remaining activity at 0.1 µM ([2]; JAK1(JH1domain-catalytic)): 100%
- remaining activity at 0.1 µM ([3]; JAK3(JH1domain-catalytic)): 100%
- remaining activity at 0.1 µM (KIT(A829P); KIT(A829P)): 100%
- remaining activity at 0.1 µM (MARK3; MARK3): 98%
- remaining activity at 0.1 µM (MY03B; MY03B): 95%
- remaining activity at 0.1 µM (PIK4CB; PIK4CB): 100%
- remaining activity at 0.1 µM (PIM2; PIM2): 95%
- remaining activity at 0.1 µM (PLK2; PLK2): 98%
- remaining activity at 0.1 µM (PRKCE; PRKCE): 72%
- remaining activity at 0.1 µM (PRKG2; PRKG2): 100%
- remaining activity at 0.1 µM (RIPK1; RIPK1): 26%
- remaining activity at 0.1 µM (RIPK4; RIPK4): 100%
- remaining activity at 0.1 µM ([4]; RSK3(Kin.Dom.1-N-terminal)): 97%
- remaining activity at 0.1 µM ([5]; RSK4(Kin.Dom.2-C-terminal)): 100%
- remaining activity at 0.1 µM (SYK; SYK): 97%
- remaining activity at 0.1 µM (TIE1; TIE1): 100%
- remaining activity at 0.1 µM (TRPM6; TRPM6): 99%
- remaining activity at 0.1 µM (VPS34; VPS34): 87%
- remaining activity at 0.1 µM (VRK2; VRK2): 91%
